The subject of the assay is NFAT. Nature of the assay: Podocyte-NFAT reporter assay (luciferase). Format: cell-based, mouse. Conditions: for baseline NFAT activity: wild type (wt) podocytes, single inhibitor, FIG. 8. The text has this: Podocyte-NFAT reporter assays: A podocyte cell line that stably expressed pGL4.30 reporter plasmid (Promega) was generated. pGL4.30 includes the luc2P firefly luciferase gene under the control of the NFAT response element. For LPS treatments both wt and stable TRPC6 knockdown podocyte cell line were transiently transfected with the pGL4.30 and pGL4.74 reporter plasmids (Promega). pGL4.74 includes the hRluc Renilla luciferase gene under the control of the constitutive HSV-TK promoter, serving as an internal control for normalization of the results. Cells were seeded in 96 well plates in standardized cell number and differentiated for three weeks prior to transfection and treatments. Stable cell lines were probed with BRIGHT-GLO Luciferase Assay System (Promega), transiently transfected cells were assayed with DUAL-GLO Luciferase Assay System (Promega). Luminescence was measured on a Molecular Devices luminescence microplate reader SpectraMax L. All experiments were carried out in octuplicate per condition and repeated in three independent experiments.
(Reporter assays use an easily measured gene product as a stand-in for the process of interest.)

Consider `O=S(=O)(NCCNC/C=C/c1ccc(Br)cc1)c1cccc2cnccc12` [H-89], for which the “baseline NFAT activity” value is recorded as “reduction”. Take `CN([C@@H](Cc1ccc(OS(=O)(=O)c2cccc3cnccc23)cc1)C(=O)N1CCN(c2ccccc2)CC1)S(=O)(=O)c1cccc2cnccc12` [KN-62]: the “baseline NFAT activity” value was “reduction”. In the case of lipopolysaccharide [LPS], the “NFAT activity after pretreatment with the substance” value (wt podocytes, versus low baseline, FIG. 6A) is “strongly increased”.

The values above are taken from US20120251527A1, “PODOCYTE SPECIFIC ASSAYS AND USES THEREOF” (University of Miami, priority 2009, published 2012).
